Drawing on patent US10016438B2, “Bicyclic heterocycles as FGFR4 inhibitors” (Incyte Corporation, priority 2015, dated 2018), this text covers FGFR1/FGFR4, FGFR2/FGFR4 and FGFR3/FGFR4 for 18 compounds.

Bounds are passed on as bounds.

The experiment deals with FGFR4 (Homo sapiens (Human), UniProt P22455). The experiment in a line: FGFR Enzymatic Assay (FRET peptide phosphorylation), FGFR4. The settings on record: IC50 ratio showing FGFR4 selectivity; pre-incubated for 4 hours.
Sequence of FGFR4 (P22455 22-802): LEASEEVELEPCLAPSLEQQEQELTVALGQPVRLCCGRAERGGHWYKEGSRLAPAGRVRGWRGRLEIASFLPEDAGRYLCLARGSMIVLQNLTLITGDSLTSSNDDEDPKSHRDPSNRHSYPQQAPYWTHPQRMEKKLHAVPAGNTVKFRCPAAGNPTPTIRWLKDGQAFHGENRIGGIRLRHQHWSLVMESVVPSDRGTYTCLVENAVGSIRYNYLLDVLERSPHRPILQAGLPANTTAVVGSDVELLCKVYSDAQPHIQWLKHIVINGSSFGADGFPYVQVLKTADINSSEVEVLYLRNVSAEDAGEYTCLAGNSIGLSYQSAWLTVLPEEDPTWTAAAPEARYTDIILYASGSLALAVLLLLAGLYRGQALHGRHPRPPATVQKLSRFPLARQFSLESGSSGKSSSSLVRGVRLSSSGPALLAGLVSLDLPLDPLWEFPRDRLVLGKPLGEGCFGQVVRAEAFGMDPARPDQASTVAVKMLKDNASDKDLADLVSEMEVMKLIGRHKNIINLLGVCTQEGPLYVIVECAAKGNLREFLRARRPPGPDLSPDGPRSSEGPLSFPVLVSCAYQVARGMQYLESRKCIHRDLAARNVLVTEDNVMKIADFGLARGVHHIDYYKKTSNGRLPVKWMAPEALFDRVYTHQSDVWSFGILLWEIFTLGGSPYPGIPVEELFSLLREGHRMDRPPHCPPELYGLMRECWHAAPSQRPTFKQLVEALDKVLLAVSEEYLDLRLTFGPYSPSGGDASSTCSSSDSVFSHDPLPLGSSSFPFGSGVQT

Text: The enzymes were purchased from Millipore or Invitrogen.
GraphPad prism3 was used to analyze the data. The IC50 values were derived by fitting the data to the equation for a sigmoidal dose-response with a variable slope. Y=Bottom+(Top−Bottom)/(1+10^((Log IC50−X)*HillSlope)) where X is the logarithm of concentration and Y is the response.

As to `C=CC(=O)Nc1cnn(C2CCOCC2)c1-c1cc2c(cn1)CN(c1c(F)c(OC)cc(OC)c1F)C(=O)C21CC1` [Example 18, N-(5-(2′-(2,6-difluoro-3,5-dimethoxyphenyl)-3′-oxo-2′,3′-dihydro-1′H-spiro[cyclopropane-1,4′-[2,7]naphthyridine]-6′-yl)-1-(tetrahydro-2H-pyran-4-yl)-1H-pyrazol-4-yl)acrylamide], the FGFR1/FGFR4 was above 100, the FGFR2/FGFR4 is given as above 50 and the FGFR3/FGFR4 is above 100.
As to `C=CC(=O)Nc1cnn(CCN2CCOCC2)c1-c1cc2c(cn1)CN(c1c(F)c(OC)cc(OC)c1F)C(=O)C21CC1` [Example 19, N-(5-(2′-(2,6-difluoro-3,5-dimethoxyphenyl)-3′-oxo-2′,3′-dihydro-1′H-spiro[cyclopropane-1,4′-[2,7]naphthyridine]-6′-yl)-1-(2-morpholinoethyl)-1H-pyrazol-4-yl)acrylamide], the FGFR1/FGFR4 is given as above 100, the FGFR2/FGFR4 is given as above 100 and the FGFR3/FGFR4 is above 100.
Consider `C=CC(=O)Nc1cnn(Cc2ccncc2)c1-c1cc2c(cn1)CN(c1c(F)c(OC)cc(OC)c1F)C(=O)C21CC1` [Example 21, N-(5-(2′-(2,6-difluoro-3,5-dimethoxyphenyl)-3′-oxo-2′,3′-dihydro-1′H-spiro[cyclopropane-1,4′-[2,7]naphthyridine]-6′-yl)-1-(pyridin-4-ylmethyl)-1H-pyrazol-4-yl)acrylamide], for which the FGFR1/FGFR4 was above 100, the FGFR2/FGFR4 is given as above 50 and the FGFR3/FGFR4 is on record as above 100.
As to `C=CC(=O)Nc1cnn(Cc2cccnc2)c1-c1cc2c(cn1)CN(c1c(F)c(OC)cc(OC)c1F)C(=O)C21CC1` [Example 22, N-(5-(2′-(2,6-difluoro-3,5-dimethoxyphenyl)-3′-oxo-2′,3′-dihydro-1′H-spiro[cyclopropane-1,4′-[2,7]naphthyridine]-6′-yl)-1-(pyridin-3-ylmethyl)-1H-pyrazol-4-yl)acrylamide], the FGFR1/FGFR4 was above 100, the FGFR2/FGFR4 is on record as above 100 and the FGFR3/FGFR4 is recorded as above 100.
As for `C=CC(=O)Nc1cnn(Cc2ncn(C)n2)c1-c1cc2c(cn1)CN(c1c(F)c(OC)cc(OC)c1F)C(=O)C21CC1` [Example 23, N-(5-(2′-(2,6-difluoro-3,5-dimethoxyphenyl)-3′-oxo-2′,3′-dihydro-1′H-spiro[cyclopropane-1,4′-[2,7]naphthyridine]-6′-yl)-1-((1-methyl-1H-1,2,4-triazol-3-yl)methyl)-1H-pyrazol-4-yl)acrylamide], the FGFR1/FGFR4 is above 100, the FGFR2/FGFR4 is recorded as above 100 and the FGFR3/FGFR4 is recorded as above 100.
For the compound `C=CC(=O)Nc1cnn(CC2CCOCC2)c1-c1cc2c(cn1)CN(c1c(F)c(OC)cc(OC)c1F)C(=O)C21CC1` [Example 24, N-(5-(2′-(2,6-difluoro-3,5-dimethoxyphenyl)-3′-oxo-2′,3′-dihydro-1′H-spiro[cyclopropane-1,4′-[2,7]naphthyridine]-6′-yl)-1-((tetrahydro-2H-pyran-4-yl)methyl)-1H-pyrazol-4-yl)acrylamide], the FGFR1/FGFR4 is on record as above 100, the FGFR2/FGFR4 is above 100 and the FGFR3/FGFR4 is above 100.
On to `C=CC(=O)Nc1cnn(Cc2ccon2)c1-c1cc2c(cn1)CN(c1c(F)c(OC)cc(OC)c1F)C(=O)C21CC1` [Example 25, N-(5-(2′-(2,6-difluoro-3,5-dimethoxyphenyl)-3′-oxo-2′,3′-dihydro-1′H-spiro[cyclopropane-1,4′-[2,7]naphthyridine]-6′-yl)-1-(isoxazol-3-ylmethyl)-1H-pyrazol-4-yl)acrylamide], for which the FGFR1/FGFR4 was above 100, the FGFR2/FGFR4 is given as above 100 and the FGFR3/FGFR4 is reported as above 100.
As for `C=CC(=O)Nc1cnn(Cc2ccnn2C)c1-c1cc2c(cn1)CN(c1c(F)c(OC)cc(OC)c1F)C(=O)C21CC1` [Example 26, N-(5-(2′-(2,6-difluoro-3,5-dimethoxyphenyl)-3′-oxo-2′,3′-dihydro-1′H-spiro[cyclopropane-1,4′-[2,7]naphthyridine]-6′-yl)-1-((1-methyl-1H-pyrazol-5-yl)methyl)-1H-pyrazol-4-yl)acrylamide], the FGFR1/FGFR4 is recorded as above 100, the FGFR2/FGFR4 is on record as above 50 and the FGFR3/FGFR4 was above 100.
Turning to `C=CC(=O)Nc1cnn(Cc2cnn(C)c2)c1-c1cc2c(cn1)CN(c1c(F)c(OC)cc(OC)c1F)C(=O)C21CC1` [Example 27, N-(5-(2′-(2,6-difluoro-3,5-dimethoxyphenyl)-3′-oxo-2′,3′-dihydro-1′H-spiro[cyclopropane-1,4′-[2,7]naphthyridine]-6′-yl)-1-((1-methyl-1H-pyrazol-4-yl)methyl)-1H-pyrazol-4-yl)acrylamide], the FGFR1/FGFR4 is above 100, the FGFR2/FGFR4 was above 100 and the FGFR3/FGFR4 is above 100.
`C=CC(=O)Nc1cnn(C[C@@H]2CCOC2)c1-c1cc2c(cn1)CN(c1c(F)c(OC)cc(OC)c1F)C(=O)C21CC1` [Example 28, (S)-N-(5-(2′-(2,6-difluoro-3,5-dimethoxyphenyl)-3′-oxo-2′,3′-dihydro-1′H-spiro[cyclopropane-1,4′-[2,7]naphthyridine]-6′-yl)-1-((tetrahydrofuran-3-yl)methyl)-1H-pyrazol-4-yl)acrylamide]: the FGFR1/FGFR4 was above 100, the FGFR2/FGFR4 is above 100 and the FGFR3/FGFR4 is given as above 100.
Consider `C=CC(=O)Nc1cnn(C[C@H]2CCOC2)c1-c1cc2c(cn1)CN(c1c(F)c(OC)cc(OC)c1F)C(=O)C21CC1` [Example 29, (R)-N-(5-(2′-(2,6-difluoro-3,5-dimethoxyphenyl)-3′-oxo-2′,3′-dihydro-1′H-spiro[cyclopropane-1,4′-[2,7]naphthyridine]-6′-yl)-1-((tetrahydrofuran-3-yl)methyl)-1H-pyrazol-4-yl)acrylamide], for which the FGFR1/FGFR4 is reported as above 100, the FGFR2/FGFR4 was above 100 and the FGFR3/FGFR4 is given as above 100.
As for `C=CC(=O)Nc1cnn(C[C@H]2CCCO2)c1-c1cc2c(cn1)CN(c1c(F)c(OC)cc(OC)c1F)C(=O)C21CC1` [Example 30, (R)-N-(5-(2′-(2,6-difluoro-3,5-dimethoxyphenyl)-3′-oxo-2′,3′-dihydro-1′H-spiro[cyclopropane-1,4′-[2,7]naphthyridine]-6′-yl)-1-((tetrahydrofuran-2-yl)methyl)-1H-pyrazol-4-yl)acrylamide], the FGFR1/FGFR4 is above 100, the FGFR2/FGFR4 is above 100 and the FGFR3/FGFR4 was above 100.
Take `C=CC(=O)Nc1cn(CCOC)nc1-c1cc2c(cn1)CN(c1c(F)c(OC)cc(OC)c1F)C(=O)C21CC1` [Example 32, N-(3-(2′-(2,6-difluoro-3,5-dimethoxyphenyl)-3′-oxo-2′,3′-dihydro-1′H-spiro[cyclopropane-1,4′-[2,7]naphthyridine]-6′-yl)-1-(2-methoxyethyl)-1H-pyrazol-4-yl)acrylamide]: the FGFR1/FGFR4 was above 100, the FGFR2/FGFR4 is above 100 and the FGFR3/FGFR4 is above 100.
For the compound `C=CC(=O)Nc1cn(CCOC(F)(F)F)nc1-c1cc2c(cn1)CN(c1c(F)c(OC)cc(OC)c1F)C(=O)C21CC1` [Example 33, N-(3-(2′-(2,6-difluoro-3,5-dimethoxyphenyl)-3′-oxo-2′,3′-dihydro-1′H-spiro[cyclopropane-1,4′-[2,7]naphthyridine]-6′-yl)-1-(2-(trifluoromethoxy)ethyl)-1H-pyrazol-4-yl)acrylamide], the FGFR1/FGFR4 is above 100, the FGFR2/FGFR4 was above 100 and the FGFR3/FGFR4 was above 100.
As to `C=CC(=O)Nc1cn(CCN2CCOCC2)nc1-c1cc2c(cn1)CN(c1c(F)c(OC)cc(OC)c1F)C(=O)C21CC1` [Example 34, N-(3-(2′-(2,6-difluoro-3,5-dimethoxyphenyl)-3′-oxo-2′,3′-dihydro-1′H-spiro[cyclopropane-1,4′-[2,7]naphthyridine]-6′-yl)-1-(2-morpholinoethyl)-1H-pyrazol-4-yl)acrylamide], the FGFR1/FGFR4 was above 100, the FGFR2/FGFR4 is above 100 and the FGFR3/FGFR4 is reported as above 100.
Regarding `C=CC(=O)Nc1cn(CC2CCOCC2)nc1-c1cc2c(cn1)CN(c1c(F)c(OC)cc(OC)c1F)C(=O)C21CC1` [Example 35, N-(3-(2′-(2,6-difluoro-3,5-dimethoxyphenyl)-3′-oxo-2′,3′-dihydro-1′H-spiro[cyclopropane-1,4′-[2,7]naphthyridine]-6′-yl)-1-((tetrahydro-2H-pyran-4-yl)methyl)-1H-pyrazol-4-yl)acrylamide], the FGFR1/FGFR4 is recorded as above 100, the FGFR2/FGFR4 is listed as above 100 and the FGFR3/FGFR4 is reported as above 100.
With `C=CC(=O)Nc1cn(CC(=O)N(C)C)nc1-c1cc2c(cn1)CN(c1c(F)c(OC)cc(OC)c1F)C(=O)C21CC1` [Example 36, N-(3-(2′-(2,6-difluoro-3,5-dimethoxyphenyl)-3′-oxo-2′,3′-dihydro-1′H-spiro[cyclopropane-1,4′-[2,7]naphthyridine]-6′-yl)-1-(2-(dimethylamino)-2-oxoethyl)-1H-pyrazol-4-yl)acrylamide], the FGFR1/FGFR4 is above 100, the FGFR2/FGFR4 is above 100 and the FGFR3/FGFR4 is above 100.
`C=CC(=O)Nc1ccc(C)c(-c2ncc3c(n2)C2(CC2)C(=O)N(c2c(F)c(OC)cc(OC)c2F)C3)c1` [Example 37, N-(3-(6′-(2,6-difluoro-3,5-dimethoxyphenyl)-7′-oxo-6′,7′-dihydro-5′H-spiro[cyclopropane-1,8′-pyrido[4,3-d]pyrimidine]-2′-yl)-4-methylphenyl)acrylamide]: the FGFR1/FGFR4 is above 100, the FGFR2/FGFR4 is on record as above 100 and the FGFR3/FGFR4 was above 100.
